Experimental data reported in ChEMBL document CHEMBL4651402, “Screening of ~5500 FDA-approved drugs and clinical candidates for anti-SARS-CoV-2 activity” (2021).
Counter-ions that a name gives are not always drawn.

Test system: SARS-CoV-2
Assay: microbe, parasite or virus in culture
Details: Severe acute respiratory syndrome coronavirus 2, Vero C1008, 48 h

Row | SMILES | IC50 | IC50 (read-out: pIC50 (converted))
1 | CC/C=C/C/C=C/C/C=C/C/C=C/C/C=C/CCCC(=O)O | > 20 µM | > 20 µM
2 | C[C@H](CCC(=O)NCCS(=O)(=O)O)[C@H]1CC[C@H]2[C@@H]3[C@@H](O)C[C@@H]4C[C@H](O)CC[C@]4(C)[C@H]3CC[C@]12C [TAURURSODIOL] | > 20 µM | > 20 µM
3 | Cc1c(C)c2ccc(OCCCN3CCN(Cc4ccc(Cl)cc4)CC3)cc2oc1=O | > 20 µM | > 20 µM
4 | C[C@@H](N)C12CC3CC(CC(C3)C1)C2 | > 20 µM | > 20 µM
5 | CCOc1ccccc1OCCN[C@H](C)Cc1ccc(OC)c(S(N)(=O)=O)c1 [TAMSULOSIN] | > 20 µM | > 20 µM
6 | COc1ccc(-c2nc(C(F)(F)F)[nH]c2-c2ccc(OC)cc2)cc1 [FLUMIZOLE] | > 20 µM | > 20 µM
7 | CC(=O)OC1(C(C)=O)CCC2C3CC(C)C4=CCCCC4(C)C3CCC21C (stereo unspecified) | > 20 µM | > 20 µM
8 | COc1ccc(-c2nc3cc(C4=NNC(=O)C[C@H]4C)ccc3[nH]2)cc1 | > 20 µM | > 20 µM
9 | NC(=O)OC[C@H](O)c1ccccc1Cl | > 20 µM | > 20 µM
10 | CCOC(C(=O)N(C)CCN(C)CCc1ccccc1)(c1ccccc1)c1ccccc1 [CARBIPHENE] | > 20 µM | > 20 µM
11 | Nc1nc2c(ncn2COC(CO)CO)c(=O)[nH]1 [GANCICLOVIR] | > 20 µM | > 20 µM
12 | N#CC(CCN1CCC(C(=O)O)(c2ccccc2)CC1)(c1ccccc1)c1ccccc1 [DIFENOXIN] | > 20 µM | > 20 µM
13 | CC[C@H]1CN2CCc3cc(OC)c(OC)cc3[C@@H]2C[C@@H]1C[C@H]1NCCc2cc(OC)c(OC)cc21 [EMETINE] | > 20 µM | > 20 µM
14 | NC[C@H]1O[C@H](O[C@H]2[C@H](O[C@@H]3O[C@H](CO)[C@@H](O)[C@H]3O)[C@@H](O)[C@H](N)C[C@@H]2N)[C@H](N)[C@@H](O)[C@@H]1O [RIBOSTAMYCIN] | > 20 µM | > 20 µM
15 | CCCCCCCCCCCCN1CCCCCC1=O [LAUROCAPRAM] | > 20 µM | > 20 µM
16 | C[C@]12N[C@H](Cc3ccccc31)c1ccccc12 [DIZOCILPINE] | > 20 µM | > 20 µM
17 | Cc1nc2ccc(-n3ncc(C(=O)c4cc5ccccc5[nH]4)c3N)cc2[nH]1 [FGFR INHIBITOR DEBIO 1347] | > 20 µM | > 20 µM
18 | O=C(OCC(O)CO)c1ccccc1Nc1ccnc2c(C(F)(F)F)cccc12 (stereo unspecified) [FLOCTAFENINE] | > 20 µM | > 20 µM
19 | CCN(CC)CCOC(=O)C(c1ccccc1)c1ccccc1 [ADIPHENINE] | > 20 µM | > 20 µM
20 | O=P(O)(O)OCC(O)CO (stereo unspecified) | > 20 µM | > 20 µM
21 | C[C@@H](O)[C@H](N)C(=O)O [THREONINE] | > 20 µM | > 20 µM
22 | C[C@]12CCC(=O)C=C1CC[C@@H]1[C@@H]2[C@@H](O)C[C@@]2(C)[C@H]1CC[C@]2(O)C(=O)CO [HYDROCORTISONE] | > 20 µM | > 20 µM
23 | CC12C=CC(=O)C=C1CCC1C2C(O)CC2(C)C1CCC2(O)C(=O)COC(=O)CCCc1ccc(N(CCCl)CCCl)cc1 (stereo unspecified) | > 20 µM | > 20 µM
24 | C[C@]12CC[C@@H]3c4ccc(OS(=O)(=O)O)cc4CC[C@H]3[C@@H]1CCC2=O [ESTRONE SULFURIC ACID] | > 20 µM | > 20 µM
25 | O=C(CN1C(=O)C2(CCCC2)NC[C@H]1c1cc(F)cc(F)c1)Nc1ccc2c(c1)C[C@@]1(C2)C(=O)Nc2ncccc21 [MK3207] | > 20 µM | > 20 µM

Row | SMILES | IC50 | IC50 (read-out: pIC50 (converted))
26 | CC1Oc2ccccc2CC1N(C)C (stereo unspecified) [TREBENZOMINE] | > 20 µM | > 20 µM
27 | CN(C)C(=O)CCSC(SCCC(=O)O)c1cccc(/C=C/c2ccc3ccc(Cl)cc3n2)c1 (stereo unspecified) [MK-571] | > 20 µM | > 20 µM
28 | CO[C@@]12CC[C@@]3(C[C@@H]1[C@](C)(O)C(C)(C)C)[C@H]1Cc4ccc(O)c5c4[C@@]3(CCN1CC1CC1)[C@H]2O5 [BUPRENORPHINE] | > 20 µM | > 20 µM
29 | CC(C(=O)O)c1ccc(Oc2nccs2)cc1 (stereo unspecified) [ZOLIPROFEN] | > 20 µM | > 20 µM
30 | CCCCCCOC(=O)NC(=N)c1ccc(NCc2nc3cc(C(=O)N(CCC(=O)OCC)c4ccccn4)ccc3n2C)cc1 [DABIGATRAN ETEXILATE] | > 20 µM | > 20 µM
31 | CN1CC[C@@H](c2c(O)cc(O)c3c(=O)cc(-c4ccccc4Cl)oc23)[C@@H]1CO | > 20 µM | > 20 µM
32 | CN1CC(O)C2=CC(=NNC(N)=O)C(=O)C=C21 (stereo unspecified) | > 20 µM | > 20 µM
33 | O=C(N/N=C/c1ccccc1O)c1ccncc1 [SALINAZID] | > 20 µM | > 20 µM
34 | c1ccc2c3c([nH]c2c1)[C@H]1[C@H]2CC[C@H]([C@@H]4CCCN[C@@H]42)N1CC3 | > 20 µM | > 20 µM
35 | NC1=NCC(c2ccc(Cl)cc2)O1 (stereo unspecified) [CLOMINOREX] | > 20 µM | > 20 µM
36 | CCOc1cccnc1Oc1cncc(-c2ncc(C(=O)N[C@H]3CCOC3)cn2)c1 [PF-06865571] | > 20 µM | > 20 µM
37 | N=C(NO)N/N=C/c1c(Cl)cccc1Cl [GUANOXABENZ] | > 20 µM | > 20 µM
38 | CCOC(=O)c1cncn1[C@@H](C)c1ccccc1 [S-ETOMIDATE] | > 20 µM | > 20 µM
39 | N[C@H](CO)C(=O)O [(D)-SERINE] | > 20 µM | > 20 µM
40 | CC(=O)N[C@@H]1[C@@H](O[C@H](C)C(=O)O)[C@H](O)[C@@H](CO)O[C@@H]1O | > 20 µM | > 20 µM
41 | CCCCC(CC)CNC(=N)NC(=N)NCCCCCCNC(=N)NC(=N)NCC(CC)CCCC (stereo unspecified) [ALEXIDINE] | > 20 µM | > 20 µM
42 | O=C(Oc1ccc2c(c1)CCCN2C(=O)C(Cl)Cl)c1ccco1 [QUINFAMIDE] | > 20 µM | > 20 µM
43 | O=P1(NCCCl)OCCCN1CCCl (stereo unspecified) [IFOSFAMIDE] | > 20 µM | > 20 µM
44 | OC(c1ccc(Cl)cc1)(c1ccc(Cl)cc1)C1CC1 [PROCLONOL] | > 20 µM | > 20 µM
45 | O=C(O)c1ccc(NC(=O)C(Cc2ccc(O)cc2)NC(=O)c2ccccc2)cc1 (stereo unspecified) | > 20 µM | > 20 µM
46 | Cc1csc(Cl)c1NC1=NCCN1 [TIAMENIDINE] | > 20 µM | > 20 µM
47 | CC(C)NC(=N)NC(=N)Nc1ccc(Cl)cc1 [PROGUANIL] | > 20 µM | > 20 µM
48 | CC(=O)CC(c1ccc([N+](=O)[O-])cc1)c1c(O)c2ccccc2oc1=O (stereo unspecified) [ACENOCOUMAROL] | > 20 µM | > 20 µM
49 | CCOC(=O)C1=C(CN2CCOCC2)NC(c2nccs2)=NC1c1ccc(F)cc1Br (stereo unspecified) | > 20 µM | > 20 µM
50 | [2H]C([2H])(CCCCCCCC)C([2H])([2H])CCCCCC(=O)OC1CCCn2c1nc(C)c(CCN1CCC(c3noc4cc(F)ccc34)CC1)c2=O (stereo unspecified) | > 20 µM | > 20 µM

Row | SMILES | IC50 | IC50 (read-out: pIC50 (converted))
51 | O=c1[nH]c(=O)n([C@H]2C[C@H](O)[C@@H](CO)O2)cc1Br [BROXURIDINE] | > 50.1 µM | > 50.1 µM
52 | CCc1cc(/C(C)=N/OCc2ccc(C3CCCCC3)c(C(F)(F)F)c2)ccc1CN1CC(C(=O)O)C1 [SIPONIMOD] | > 20 µM | > 20 µM
53 | O=C(NCC12CC3CC(CC(C3)C1)C2)c1cc(CCCNCCCO)ccc1Cl [AZD9056] | > 20 µM | > 20 µM
54 | CC(=O)[C@H]1CC[C@H]2[C@@H]3C[C@H](C)C4=CC(=O)CC[C@]4(C)[C@H]3[C@@H](O)C[C@]12C [MEDRYSONE] | > 20 µM | > 20 µM
55 | COC(=O)/C=C/C(=O)OCCN1C(=O)CCC1=O [DIROXIMEL FUMARATE] | > 20 µM | > 20 µM
56 | FC(F)(F)c1ccc(CNc2ccc(Cc3c[nH]c4ncc(Cl)cc34)cn2)cn1 [PEXIDARTINIB] | > 20 µM | > 20 µM
57 | CCSc1ccc2c(c1)N(CCCN1CCN(C)CC1)c1ccccc1S2 [THIETHYLPERAZINE] | > 20 µM | > 20 µM
58 | Cc1nc(Nc2ncc(C(=O)Nc3c(C)cccc3Cl)s2)cc(N2CCN(CCO)CC2)n1 [DASATINIB] | > 20 µM | > 20 µM
59 | CNC(=O)c1cccc2cc(Oc3ccnc4cc(OCC5(N)CC5)c(OC)cc34)ccc12 [LUCITANIB] | > 20 µM | > 20 µM
60 | CCOC(=O)C(C)(C)Oc1ccc(Cl)cc1 [CLOFIBRATE] | > 20 µM | > 20 µM
61 | CC(C)NCC(O)c1ccc(O)c(O)c1 (stereo unspecified) [ISOPROTERENOL] | > 20 µM | > 20 µM
62 | Cn1c(-c2ccc3c(c2)OCO3)cc(=O)c2ccccc21 [GRAVEOLINE] | > 20 µM | > 20 µM
63 | CCCC(=O)O[C@]1(C(=O)CCl)C(C)CC2C3CCC4=CC(=O)C=CC4(C)[C@@]3(F)C(=O)CC21C (stereo partly specified) | > 20 µM | > 20 µM
64 | CCOC(=O)c1c(N)sc2c1CCN(Cc1ccccc1)C2 [TINORIDINE] | > 20 µM | > 20 µM
65 | O=c1[nH]c(=O)n([C@@H]2O[C@H](CO)[C@@H](O)[C@@H]2F)cc1I [FIALURIDINE] | > 20 µM | > 20 µM
66 | COCCO[C@@H]1c2ccn3c(C)c(C)nc3c2N[C@H](c2ccccc2)[C@H]1O [SORAPRAZAN] | > 20 µM | > 20 µM
67 | CN1[C@@H]2C[C@@H](OC(=O)[C@@](O)(CO)c3ccccc3)C[C@H]1[C@@H]1O[C@@H]12 | > 20 µM | > 20 µM
68 | COc1cccc(C=O)c1O | > 20 µM | > 20 µM
69 | CC12CCC(O)CC1CCC1[C@@H]2CC(O)C2(C)C(C3=CC(=O)OC3)CCC12O (stereo partly specified) | > 20 µM | > 20 µM
70 | C=C[C@H]1CN2CC[C@H]1C[C@H]2[C@H](O)c1ccnc2ccc(OC)cc12 [QUININE] | > 20 µM | > 20 µM
71 | CC(O)C(=O)Nc1c(I)c(C(=O)NC(CO)CO)c(I)c(C(=O)NC(CO)CO)c1I (stereo unspecified) | > 20 µM | > 20 µM
72 | CN1C(=O)N(C)C2C1N(C)C(=O)N2C (stereo unspecified) [MEBICAR] | > 20 µM | > 20 µM
73 | Nc1nc(O)c2c(n1)NCC(CNc1ccc(C(=O)N[C@@H](CCC(=O)O)C(=O)O)cc1)N2 (stereo partly specified) | > 20 µM | > 20 µM
